We go through 14 compounds from ChEMBL document CHEMBL3098065, “Discovery of Pyridyl Bis(oxy)dibenzimidamide Derivatives as Selective Matriptase Inhibitors” (ACS Med Chem Lett, 2013).

In brackets after ≈: the same amount, converted by molar mass.

Data set [1] addresses Urokinase-type plasminogen activator (Homo sapiens, UniProt P00749). The experiment in a line: Inhibition of uPA (unknown origin) using L-PyroGlu-Gly-Arg-pNA.HCl as substrate.
The target of data set [2] is T1, Suppressor of tumorigenicity 14 protein (Homo sapiens, UniProt Q9Y5Y6).
T1 sequence (Q9Y5Y6 whole entry): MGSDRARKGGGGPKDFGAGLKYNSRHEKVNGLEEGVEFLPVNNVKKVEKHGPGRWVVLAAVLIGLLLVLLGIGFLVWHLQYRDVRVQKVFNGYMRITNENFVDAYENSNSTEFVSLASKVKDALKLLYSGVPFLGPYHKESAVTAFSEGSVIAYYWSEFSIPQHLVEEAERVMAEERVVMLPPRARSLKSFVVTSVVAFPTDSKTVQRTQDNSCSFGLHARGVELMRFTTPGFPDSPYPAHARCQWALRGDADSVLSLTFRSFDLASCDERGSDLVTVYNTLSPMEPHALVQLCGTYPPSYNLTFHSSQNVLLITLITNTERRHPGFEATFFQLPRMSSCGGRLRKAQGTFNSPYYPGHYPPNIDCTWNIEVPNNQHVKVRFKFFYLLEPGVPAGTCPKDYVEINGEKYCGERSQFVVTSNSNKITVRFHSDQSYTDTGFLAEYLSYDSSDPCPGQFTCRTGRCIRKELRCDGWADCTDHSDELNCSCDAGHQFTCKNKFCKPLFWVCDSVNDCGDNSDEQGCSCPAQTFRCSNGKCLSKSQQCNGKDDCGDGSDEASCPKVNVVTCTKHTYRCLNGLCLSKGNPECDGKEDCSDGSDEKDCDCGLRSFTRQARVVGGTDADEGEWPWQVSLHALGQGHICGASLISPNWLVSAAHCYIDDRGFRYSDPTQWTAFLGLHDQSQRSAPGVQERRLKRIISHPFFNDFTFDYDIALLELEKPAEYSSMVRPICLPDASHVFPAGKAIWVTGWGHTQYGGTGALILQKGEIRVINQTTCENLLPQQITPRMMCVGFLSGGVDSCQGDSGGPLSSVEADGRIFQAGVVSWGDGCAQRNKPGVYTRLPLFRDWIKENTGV
The experiment in a line: Inhibition of matriptase-SP1 (615 to 855) (unknown origin) expressed in Escherichia coli BL21(DE3) using Boc-Gln-Ala-Arg-7-amido-4-methyl coumarin hydrobromide as substrate by fluorescence assay.

The target of data set [3] is Prothrombin (Homo sapiens, UniProt P00734). Kind of data set: Inhibition of thrombin (unknown origin) by fluorescence assay.
Data set [4] deals with Trypsin (Homo sapiens, UniProt P07477+P07478+P35030). Kind of data set: Inhibition of trypsin (unknown origin) by fluorescence assay. In kind it is protein assay.
For data set [5], the target named is Coagulation factor X (Homo sapiens, UniProt P00742). The experiment in a line: Inhibition of factor 10a (unknown origin) using CH3OCO-D-CHA-Gly-Arg-pNA.AcoH as substrate.
The subject of data set [6] is PC-3. The experiment in a line: Cytotoxicity against human PC3 cells at 10 uM after 72 hrs by calcein AM assay relative to control. Format: functional.
Data set [7] in a line: Metabolic stability in mouse liver microsomes assessed as compound remaining at 1 uM after 20 mins by LC-MS/MS analysis. Format: ADME, Microsome. As to conditions: read-out: Stability.
The test system of data set [8] is DU-145. The experiment in a line: Cytotoxicity against human DU145 cells at 10 uM after 72 hrs by calcein AM assay relative to control. Format: functional.
The test system of data set [9] is PC-3. The experiment in a line: Antiinvasive activity against human PC3 cells at 10 uM incubated overnight followed by fibronectin and HGF addition measured after 48 hrs by calcein AM assay relative to control. As to conditions: PC-3, 48 h. In kind it is functional.
Data set [10] relates to DU-145. The experiment in a line: Antiinvasive activity against human DU145 cells at 10 uM incubated overnight followed by fibronectin addition measured after 48 hrs by calcein AM assay relative to control. Format: functional. Particulars: DU-145, 48 h.
The subject of data set [11] is DU-145. The experiment in a line: Antimigratory activity against human DU145 cells at 10 uM incubated overnight followed by fibronectin addition measured after 24 hrs by calcein AM assay relative to control. As to conditions: DU-145, 24 h. Format: functional.
Data set [12] in a line: Metabolic stability in mouse liver microsomes assessed as compound remaining at 1 uM after 40 mins by LC-MS/MS analysis. Format: ADME, Microsome. Particulars: read-out: Stability.
Data set [13] in a line: Kinetic aqueous solubility of the compound at pH 7.4 after 16 hrs by shake flask method. In kind it is physicochemical. Particulars: read-out: Kinetic_solubility.
Data set [14] concerns PC-3. The experiment in a line: Antimigratory activity against human PC3 cells at 10 uM incubated overnight followed by fibronectin and HGF addition measured after 24 hrs by calcein AM assay relative to control. In kind it is functional. As to conditions: PC-3, 24 h.

Sequence of Coagulation factor X (P00742 41-179 limits assumed): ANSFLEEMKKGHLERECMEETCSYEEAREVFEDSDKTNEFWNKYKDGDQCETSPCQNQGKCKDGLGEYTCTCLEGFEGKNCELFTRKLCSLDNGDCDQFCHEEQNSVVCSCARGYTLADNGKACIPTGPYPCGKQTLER
Sequence of Coagulation factor X (P00742 235-488 limits assumed): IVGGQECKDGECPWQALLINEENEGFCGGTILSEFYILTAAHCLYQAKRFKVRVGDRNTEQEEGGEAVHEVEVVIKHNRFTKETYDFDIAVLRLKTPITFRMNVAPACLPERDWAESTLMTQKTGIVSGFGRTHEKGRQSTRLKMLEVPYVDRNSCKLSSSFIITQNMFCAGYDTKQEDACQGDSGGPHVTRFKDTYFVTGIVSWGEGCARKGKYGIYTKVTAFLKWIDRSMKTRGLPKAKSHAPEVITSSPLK

For the compound `N=C(N)c1ccc(Oc2ccc(NS(=O)(=O)c3cccc4cccnc34)c(Oc3ccc(C(=N)N)cc3)n2)cc1`, the Ki (as a rule, a dissociation constant, usually derived from enzyme kinetics or from competition with a known ligand) was > 10000 nM in data set [1] and 200 nM in data set [2].

`N=C(N)c1ccccc1` [BENZAMIDINE] registered a Ki in data set [2] of 400000 nM.

For `N=C(N)c1ccc(Oc2cccc(Oc3ccc(C(=N)N)cc3)n2)cc1`, the figures for the Ki in data set [3], in data set [2] and in data set [4] were 600 nM, 9600 nM and 2800 nM, respectively.

Regarding `N=C(N)c1ccc(Oc2cc(C(=O)N3CCC(CCN)CC3)cc(Oc3ccc(C(=N)N)cc3)n2)cc1`, the Ki is > 10000 nM in data set [1]; > 2500 nM in data set [3]; 100 nM in data set [2]; 2200 nM in data set [4]; 200 nM in data set [5].

Consider `N=C(N)c1ccc(Oc2ccc(NS(=O)(=O)c3cc(F)cc(F)c3)c(Oc3ccc(C(=N)N)cc3)n2)cc1`, for which the Ki in data set [1] is > 10000 nM; in data set [2], 1200 nM.

Take `N=C(N)c1ccc(Oc2ccc(C(=O)N3CCC(CCN)CC3)c(Oc3ccc(C(=N)N)cc3)n2)cc1`: the Ki in data set [1] was > 10000 nM; in data set [3] it was > 2500 nM; in data set [2] it was 200 nM; in [4], 3600 nM; in data set [5] it was 1500 nM.

Regarding `N=C(N)c1ccc(Oc2ccc(C(=O)N[C@H]3CC[C@H](N)CC3)c(Oc3ccc(C(=N)N)cc3)n2)cc1`, the Ki in data set [1] is > 10000 nM; in data set [3] it was 3400 nM; in data set [2], 500 nM; in [4], 2000 nM; in [5], 600 nM.

With `N=C(N)c1ccc(Oc2ccc(C(=O)NCCCN)c(Oc3ccc(C(=N)N)cc3)n2)cc1`, the inhibitory constant (Ki) in data set [1] is > 10000 nM; in [3] it was 2100 nM; in data set [2], 400 nM; in data set [4] it was 300 nM; in data set [5], 300 nM.

Turning to `N=C(N)c1ccc(Oc2ccc(NS(=O)(=O)c3ccc(F)cc3)c(Oc3ccc(C(=N)N)cc3)n2)cc1`, the Activity in data set [6] and in data set [8] was 0% throughout. In addition, the remaining at 20 min, 1 µM in [7] was determined as 89%. Moreover, the inhibition (usually the change of the read-out against control, counted positive when it falls) at 10 µM in data set [9] is 60%; in data set [10], 61%; in data set [11] it was 69%; in [14], 65%. The Ki in data set [1] is > 10000 nM; in data set [3] it was 4100 nM; in [2], 200 nM; in data set [4] it was 1400 nM; in data set [5] it was 300 nM. The remaining at 40 min, 1 µM in data set [12] amounted to 86.5%. Besides, the solubility kinetic at 16 h in data set [13] came out at 194 µM (≈ 101 µg/mL).

As for `N=C(N)c1ccc(Oc2cc(C(=O)N[C@H]3CC[C@H](N)CC3)cc(Oc3ccc(C(=N)N)cc3)n2)cc1`, the results for the Activity in data set [6] and in [8] were 1% and 0%, respectively. Besides, the remaining at 20 min, 1 µM in data set [7] came to 100%. Further, the inhibition at 10 µM was 42% in data set [9], 69% in data set [10], 65% in [11] and 53% in data set [14]. The Ki in data set [1] is > 10000 nM; in data set [3], 2500 nM; in [2], 40 nM; in [4], 2400 nM; in data set [5], 400 nM. The remaining at 40 min, 1 µM in data set [12] worked out at 95.6%. In [13], the solubility kinetic at 16 h worked out at 196 µM (≈ 95.6 µg/mL).

`N=C(N)c1ccc(Oc2ccc(NS(=O)(=O)c3ccc4ccccc4c3)c(Oc3ccc(C(=N)N)cc3)n2)cc1`: the Activity in [6] and in data set [8] was 20% each time. The remaining at 20 min, 1 µM in [7] came to 76.4%. The inhibition at 10 µM in data set [9] was 42%; in data set [10] it was 47%; in data set [11], 59%; in [14] it was 39%. Further, the Ki in data set [1] was > 10000 nM; in [3], 5800 nM; in [2] it was 40 nM; in data set [4], 1300 nM; in data set [5], 300 nM. Also, in [12], the remaining at 40 min, 1 µM came out at 73.2%. Moreover, the solubility kinetic at 16 h in [13] was found to be 191 µM (≈ 106 µg/mL).

Take `N=C(N)c1ccc(Oc2ccc(C(=O)NC3CCN(C(=O)CCN)CC3)c(Oc3ccc(C(=N)N)cc3)n2)cc1`: the Ki was > 10000 nM in [1], 3600 nM in data set [3], 600 nM in data set [2] and 2300 nM in [5].

As to `N=C(N)c1ccc(Oc2cc(C(=O)NC3CCN(CCCN)CC3)cc(Oc3ccc(C(=N)N)cc3)n2)cc1`, the Ki in data set [1] is > 10000 nM; in data set [3], 2900 nM; in data set [2], 40 nM; in data set [5], 100 nM.

For the compound `N=C(N)c1ccc(Oc2ccc(N)c(Oc3ccc(C(=N)N)cc3)n2)cc1`, the Ki in [1] was > 10000 nM; in data set [3] it was 4400 nM; in [2] it was 2900 nM; in data set [4] it was 5500 nM; in data set [5] it was 1200 nM.
